Marks after values point to notes of the source that are not given here.
Legend:
[1] = system: SHBG, cortisol binding protein (CBP), ceruloplasmin and HDL-cholesterol; conditions: cited from earlier work; for estrogenic effect: in man; for androgenic activity: on the basis of a change in SHBG and HDL cholesterol levels
ceruloplasmin = conditions: FIG. 1 of Ruokonen and Kaar; cited from earlier work
[2] = review of human studies; cited from earlier work
C-reactive protein (CRP) = assay: CRP in postmenopausal women with type 2 diabetes on estrogen replacement therapy, randomized placebo-controlled trial (Example III); format: in vivo, human
[3] = among third-generation OCs; cited from earlier work

SMILES	estrogenic effect [1]	androgenic activity [1]	androgenicity and antiestrogenic potential [2]	also measured
C#C[C@]1(O)CC[C@H]2[C@@H]3CCC4=CCCC[C@@H]4[C@H]3C(=C)C[C@@]21CC [desogestrel]	no estrogenic effect	androgenic activity	minimal amounts of androgenicity and antiestrogenic potential	androgenicity compared among the three compounds ([1]; desogestrel, levonorgestrel and lynestrenol compared): least androgenic; effect on ceruloplasmin concentration (ceruloplasmin): does not induce this effect or does so to an insufficient degree
C[C@]12CC[C@@H]3c4ccc(O)cc4CC[C@H]3[C@@H]1CC[C@@H]2O [17 beta estradiol]	–	–	–	effect on CRP (C-reactive protein (CRP); 2 mg/d orally for six weeks): induced an increase in CRP; CRP-values, Median (C-reactive protein (CRP); 6 weeks, 2 mg/d orally, p = 0.0027 compared to pretreatment): 6.70#; CRP-values, Median (C-reactive protein (CRP); Pretreatment (baseline of the treatment group), postmenopausal women with type 2 diabetes): 4.13
C#C[C@]1(OC(C)=O)CC[C@H]2[C@@H]3CCC4=CC(=NO)CC[C@@H]4[C@H]3CC[C@@]21CC (mixture of isomers) [norgestimate]	–	–	minimal amounts of androgenicity and antiestrogenic potential	androgenic profile in vitro [3]: least androgenic profile
C#C[C@]1(O)C=C[C@H]2[C@@H]3CCC4=CC(=O)CC[C@@H]4[C@H]3CC[C@@]21CC [gestodene]	–	–	minimal amounts of androgenicity and antiestrogenic potential	–
C#C[C@]1(O)CC[C@H]2[C@@H]3CCC4=CCCC[C@@H]4[C@H]3CC[C@@]21C [lynestrenol]	weakly estrogenic	androgenic activity	–	–

— patent US20020110523A1, “Methods for screening or monitoring the risk of cardiovascular disease relating to sex steroid compound or composition intake and methods for screening sex steroid compound” (priority 1996, published 2002)
